Measured values from patent US20080305049A1, “Mri Contrast Agents for Diagnosis and Prognosis of Tumors” (priority 2005, published 2008).
“Also recorded” adds a separate entry of the source.

What was measured:
MDA-MB-231 cells = test: proliferation of ER− human breast cancer cells (MTT method)
Protocol: The number of cells was determined spectrophotometrically using the MTT [3-(4,5-dimethylthiazol-2-yl)-2,5-diphenyltetrazolium bromide] method. The samples are read using an ELISA plate reader at a wavelength of 570 nm. The amount of color produced is directly proportional to the number of viable cells.

[1] = molecular target: T1, human recombinant ER (ERα) (Homo sapiens, UniProt P03372); test: competitive radiometric binding assay with tritiated estradiol; conditions: for IC50 / Ki: human recombinant ER; for IC50: read-out: IC50, concentration of competing ligand required to replace half of the ER bound tritiated estradiol; for Ki: read-out: Ki, calculated equilibrium concentration of competing ligand that binds half of the ER binding sites
T1 sequence (P03372 1-595): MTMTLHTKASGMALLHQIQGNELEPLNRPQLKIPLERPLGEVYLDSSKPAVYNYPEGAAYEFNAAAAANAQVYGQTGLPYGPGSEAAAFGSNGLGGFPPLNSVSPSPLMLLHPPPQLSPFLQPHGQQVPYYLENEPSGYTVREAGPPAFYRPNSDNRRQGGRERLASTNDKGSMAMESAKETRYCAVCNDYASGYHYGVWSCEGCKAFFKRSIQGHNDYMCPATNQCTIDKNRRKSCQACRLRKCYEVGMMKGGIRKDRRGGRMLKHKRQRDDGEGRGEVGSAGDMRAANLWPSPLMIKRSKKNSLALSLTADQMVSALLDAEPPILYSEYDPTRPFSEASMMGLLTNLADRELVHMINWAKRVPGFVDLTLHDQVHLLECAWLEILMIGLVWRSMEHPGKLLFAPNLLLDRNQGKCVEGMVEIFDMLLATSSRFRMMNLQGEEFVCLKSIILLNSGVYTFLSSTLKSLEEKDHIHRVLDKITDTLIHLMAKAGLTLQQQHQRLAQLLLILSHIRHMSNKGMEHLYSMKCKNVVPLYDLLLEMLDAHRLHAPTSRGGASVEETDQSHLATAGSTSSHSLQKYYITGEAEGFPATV
Protocol: This procedure yields IC50 displacement values for the inhibition of the binding of tritiated estradiol to the ER. Low IC50 values correlates to high binding affinities.
The binding affinities were determined by performing a competitive radiometric-binding assay using tritiated estradiol and human recombinant ER. […] Table 1 presents the concentration of the competing ligand required to replace half of the ER bound tritiated estradiol, IC50, and the calculated equilibrium concentration of the competing ligand that will bind to half of the ER binding sites, Ki.

[2] = tested on: MCF7, T47D and ZR-75-1 ER+ human breast cancer cells; test: proliferation of ER+ human breast cancer cells (MTT method); format: cell-based; conditions: for agonistic or antagonistic effect on proliferation: 2 μM
Protocol: The agonistic or antagonistic effects of the conjugates and metal complexes thereof were studied by their capacity to enhance or arrest cell growth, respectively.
The vehicle (water) was added as control and served to normalize the changes in cell number.

[3] = molecular target: T2, estrogen receptor (ER)-α in MCF7 cells (Homo sapiens, UniProt P03372); test: Western blot of ER-α level relative to tubulin; format: cell-based; conditions: 6 hours after treatment
T2 construct: endogenous in cells; host or cells: MCF7 human breast cancer cells
T2 sequence (P03372 1-595): T1 sequence (P03372 1-595)
Description: FIG. 10B is a graph showing the quantitative analysis of the blots in terms of ER expression relative to tubulin expression under the various treatments as indicated in the figure.
We then carried out a Western blot for determining the level of the estrogen receptor protein using an anti-ER antibody to identify ER in the blot. […] FIG. 10A depicts the Western blot and FIG. 10B depicts quantitation of the blot: the amount of ER relative to tubulin, assuming tubulin is constant under all treatment manipulations.

[4] = T1 and T2 relaxivity of water at 4.7 Tesla; format: physicochemical
Protocol: The T1 and T2 relaxivity of the MRI probes, i.e., the Gd complexes of the invention, were measured in saline solutions using standard protocols (i.e inversion recovery for T1 relaxivity and Carr-Purcell-Meiboom-Gill (CPMG) for T2 relaxivity).
The capacity of the Gd complex 7 to serve as a relaxation contrast agent was determined by measuring its relaxivity. […] For the T1 relaxivity measurement, a spin echo sequence was employed with a varying repetition time-TR (11 TRs, from 50 to 15,000 msec) and a fixed echo time of 23 msec.
The T1 relaxivity was determined from the slope.
We determined the MRI properties of the novel paramagnetic ER ligands. T1 and T2 relaxation rates of the water protons were measured as a function of the concentration of the Gd complex 7.

[5] = toxicology after intravenous injection; format: in vivo, CD1-NU mice
Description: (§1) Animals: CD1-NU immunodeficient female mice (6-10 weeks old, 20-25 g weight) were provided by the Animal Unit of the Weizmann Institute of Science. During the MRI experiments, the animals were anesthetized by inhalation of 1% Isoflurane in an O2:N2O (3:7) mixture, applied through a nose cone. All animals were handled according to the regulations formulated by the Institutional Animal Care and Use Committee (IACUC) of the Weizmann Institute of Science (Rehovot, Israel).
Toxicology: The probes (e.g. Gd complex 7) were injected into the tail vein of CD1-NU mice at a varying dose in the range of 0.024 to 1.0 mmol/kg weight.

[6] = in vivo MRI monitoring of distribution and binding in mice with orthotopic MCF7 breast tumor; set-up: species or system CD1-NU immunodeficient female mice; conditions: female, CD1-NU, mouse, tumor (orthotopic MCF7 breast tumor), intravenous; 24 hours after bolus 0.024 mmol/kg, calculated from relaxation rates; read-out: apparent concentration in the tumor
Description: as §1
(§2) Tumors: ER^+ human breast cancer MCF-7 cells were implanted orthotopically into the mammary gland of the CD1-NU immunodeficient female mice, as previously described (Paran et al., 2004). The mice were ovariectomized to eliminate any […] estrogen. Initially a pellet of 17β-estradiol (Innovative Research, Florida) was implanted before the cells were injected, to ensure growth of the tumors. Within 3 weeks, tumors developed to a size of about ˜0.5 ml and consisted of highly proliferating cells. At this stage we removed the estrogen pellet and after a week administered the MRI probe. The extent of accumulation in the tumors was studied in vivo and in excised tumors and was then compared to results obtained by the standard immunostaining technique.
(§3) MRI: The accumulation of the MRI probe was tested by scanning the tumors before the injection of the probe and at times after the injection, using T1 weighted and T2 weighted pulse sequences. MR images were recorded with a 4.7 Tesla scanner (Bruker; Biospec 4.7 T/30 cm bore, dedicated Doty resonator, 3 cm diameter, 200 MHz for protons). The MRI parameters for scanning T2-weighted images were: 2D Spin echo with: TE/TR=69 msec/4000 msec, field of view (FOV) 5 cm, slice thickness 1.2 mm and 128×256 matrix. For T1 measurements two pulse sequences were employed: 1. Inversion recovery pulse sequence with varying T1 (n=20) ranging from 10 to 10000 msec, TE/TR=3.15 msec/15 msec, flip angle 10 degrees; 2. Fast gradient echo sequence. The spatial resolution was as in the T2 weighted image except the matrix was 128×128.
(§4) Distribution of the MR probes: The distribution of the Gd complex 7 in the blood, inner organs and the tumors was monitored over a period of 24 h after a bolus injection of 7 into the tail vein at a dose ranging from 0.024 to 0.4 mmol/kg.
(§5) The contrast agent distribution was monitored, alternating between two pulse sequences: 1. T1-weighted, 3D gradient echo with TE/TR of 4.3/18.3 ms; a 30° flip angle, 2. 2D inversion or saturation recovery sequence with varying T1 (n=20) ranging from 10 to 10000 msec, and gradient echo acquisition with TE/TR of 3.5/15 msec and 100 flip angel. The latter sequence enabled us to map the T1 relaxation time. The spatial resolution was the same for both sequences and during the whole experiment time, namely, 0.2×0.4×1.2 mm^3. Susceptibility gradient echo and T2 weighted spin echo protocols were employed to generate the MR images of the animal.
(§6) Several protocols of administration of the Gd complex 7 were examined: a high and low dose bolus injection of 0.4 mmol/kg and 0.024 mmol/kg, respectively (FIGS. 7 and 8), and a slow infusion (drip) protocol over 60 min of the high dose.
(§7) To determine the ER-binding of 7 administered at low concentration (0.024 mmol/kg), we performed measurements up to 24 after its administration, when all the tissues appeared to be cleared from the probe. FIGS. 7A-7B show the time course of the T1 relaxation in the bladder, orthotopic MCF7 breast tumor and muscle of a female CD1-NU immunodeficient mouse after a bolus administration of a low dose of 7 (0.024 mmol/kg) (7B) and the area of each organ as marked on the upper T2-weighted image (FIG. 7A). The images at 0, 0.5 and 2.5 h were recorded with the anaesthetized mouse in the same position. After the 2.5 h measurement, the mouse was returned to its cage and was again scanned under anesthesia at the 7 and 24 hours time points. […] The central slice of each organ is presented. […]

[7] = tested on: orthotopic ER+ MCF7 breast tumor; test: as above; set-up: species or system CD1-NU immunodeficient female mice
Description: as §1, §2, §3, §4, §5, §6, §7

rat uterus = test: MRI of the uterus of ovariectomized rats; format: in vivo; conditions: 0.024 mmol/kg
Protocol: We developed and applied in vivo tests of the Gd complex 7 in the classical target organ of estrogen (the rat uterus). […] In order to be able to delineate the uterus, we applied a newly developed segmentation algorithm that enables us to automatically monitor changes in the entire uterine volume and in the changing nuclear relaxation rates due to interaction with 7. […] The endometrium volume increased by 45%, over the entire monitoring period of 5.5 hours, indicating response to the Gd complex 7, as shown in FIGS. 11A-11E.
FIG. 11A depicts the T2-weighted images prior to administration and FIG. 11B depicts the T2-weighted images after 5 hours of administration of compound 7 (the endometrium is circled in green) with the corresponding 3D automatically delineated right horn (FIGS. 11C and 11D) and the corresponding changes in the volume during the entire time course (FIG. 11E).

[8] = bolus 0.4 mmol/kg, about 5 hours

Compound: C[C@]12CC[C@@H]3c4ccc(O)cc4CC[C@H]3[C@@H]1CC[C@@H]2O [17β-estradiol, reference compound]
- sensitivity of proliferation of ER− cells (MDA-MB-231 cells): neither sensitive

Compound: C[C@]12CCC3c4ccc(O)cc4CCC3C1CC[C@@]2(O)C#Cc1cc(CN(CC(=O)O)CC(=O)O)nc(CN(CC(=O)O)CC(=O)O)c1 (stereo partly shown) [Compound 6]
- IC50 [1]: 4.4 µM
- Ki [1]: 0.4 µM
- dose at which induction of proliferation occurred ([2]; ER+ human breast cancer cells): nanomolar
- stimulation of cell growth ([2]; MCF7, T47D, ZR-75-1, 30 nM or 1 μM): stimulated the growth of the cells in a similar manner to that of estrogen
- agonistic or antagonistic effect on proliferation ([2]; MCF7, T47D): agonistic
- toxicity to cells ([2]; high concentrations): toxic at high concentrations
- effect on ER-α level [3]: induced partial degradation of the receptor; also recorded: induce ER reduction
- sensitivity of proliferation of ER− cells (MDA-MB-231 cells): neither sensitive

Compound: CC12CCC3c4ccc(O)cc4CCC3C1CCC2(O)C#Cc1cc(CN(CC(=O)O)CC(=O)O)nc(CN(CC(=O)O)CC(=O)O)c1 (stereo not shown) [Compound 7]
- binding affinity to ER (in words) [1]: strong binding affinity to ER, comparable to that of tamoxifen
- T1 relaxivity [4]: 7.99 ± 0.05 mM⁻¹ s⁻¹
- T2 relaxivity [4]: 30.8 ± 1.0 mM⁻¹ s⁻¹
- toxicity (summary statement) ([5]; mice and rats): non toxic in mice and rats
- tolerability of repetitive administration ([5]; repetitive administration 3-7 days apart): appeared to be harmless
- lethality and adverse effects ([5]; up to 0.4 mmol/kg, intravenous, CD1-NU mice): not lethal and does not cause obvious adverse effects; also recorded: non-toxic
- concentration at 24 h [6]: 2500 nM
- final concentration in tumor versus muscle ([7]; 2 h after 1 hour slow infusion of 0.4 mmol/kg): similar
- muscle T1 relaxation rate (R1) ([7]; 24 hours after 0.024 mmol/kg): returned to that measured before
- tumor T1 relaxation rate (R1) increase ([7]; 24 hours after 0.024 mmol/kg): small but persistent
- residual amount in the muscle ([7]; 24 hours after bolus 0.024 mmol/kg): no residual amount
- clearance through the kidneys into the urine compared with GdDTPA ([7]; bolus 0.4 mmol/kg): several folds slower
- time of full clearance after administration ([7]; bolus 0.4 mmol/kg): 24 h
- MRI signal enhancement in the muscle [7, 8]: declined close to pre-contrast administration
- MRI signal enhancement in the tumor [7, 8]: persisted throughout the experimental time
- effect on ER-α level [3]: induced partial degradation of the receptor; also recorded: induce ER reduction
- effect in the uterus (rat uterus): agonistic effect in the uterus
- increase of endometrium volume (rat uterus; over 5.5 hours): 45%
- sensitivity of proliferation of ER− cells (MDA-MB-231 cells): neither sensitive

Compound: CC/C(=C(\c1ccc(C#Cc2cc(CN(CC(=O)O)CC(=O)O)nc(CN(CC(=O)O)CC(=O)O)c2)cc1)c1ccc(OCCN(C)C)cc1)c1ccccc1 [Compound 16]
- IC50 [1]: 5.3 µM
- Ki [1]: 0.48 µM
- hormonal activity (summary statement) [2]: antagonist to estrogen
- agonistic or antagonistic effect on proliferation ([2]; MCF7, T47D): did not elicit an estrogenic effect
- effect on ER-α level [3]: acted like tamoxifen; also recorded: do not affect ER level

Compound: C[C@]12CC[C@@H]3c4ccc(O)cc4C[C@@H](CCCCCCCCC[S+]([O-])CCCC(F)(F)C(F)(F)F)[C@H]3[C@@H]1CC[C@@H]2O (stereo partly shown) [ICI-182780, reference compound]
- effect on ER-α level [3]: down regulation
